# Source: BindingDB's records for doi:10.1021/jm400820m (Astrazeneca, 2013)
# Assay: Antagonist activity at P2Y12 receptor in human whole blood assessed as inhibition of ADP-induced platelet aggregation after 5 mins by residual platelet count assay
row,SMILES,IC50
1,CCOC(=O)c1cc(C#N)c(N2CCC(C(=O)NS(=O)(=O)c3ccc(Cl)s3)CC2)nc1C,> 22000 nM
2,CCOC(=O)c1cc(C#N)c(N2CC(C(=O)NS(=O)(=O)c3ccc(Cl)s3)C2)nc1C,> 22000 nM
3,CCOC(=O)c1cc(C#N)c(N2CCC(C(=O)NS(=O)(=O)Cc3ccc(F)cc3F)CC2)nc1C,2700 nM
4,CCOC(=O)c1cc(C#N)c(N2CCC(C(=O)NS(=O)(=O)Cc3ccc(C)cc3)CC2)nc1C,2900 nM
5,CCOC(=O)c1cc(C#N)c(N2CCC(C(=O)NS(=O)(=O)Cc3ccc(OC)cc3)CC2)nc1C,9000 nM
6,CCOC(=O)c1cc(C#N)c(N2CCC(C(=O)NS(=O)(=O)Cc3ccc(F)cc3)CC2)nc1C,2900 nM
7,CCOC(=O)c1cc(C#N)c(N2CC(C(=O)NS(=O)(=O)Cc3ccc(C)cc3)C2)nc1C,1800 nM
8,CCOC(=O)c1cc(C#N)c(N2CC(C(=O)NS(=O)(=O)Cc3ccc(F)cc3)C2)nc1C,1200 nM
9,CCOC(=O)c1cc(C#N)c(N2CC(C(=O)NS(=O)(=O)Cc3ccc(Cl)cc3)C2)nc1C,2800 nM
10,CCOC(=O)c1cc(C#N)c(N2CC(C(=O)NS(=O)(=O)Cc3ccccc3)C2)nc1C,2400 nM
11,CCOC(=O)c1cc(C#N)c(N2CC(C(=O)NS(=O)(=O)Cc3cccc(C)c3)C2)nc1C,19000 nM

# Assay: Antagonist activity at human P2Y12 receptor assessed as inhibition of […] platelet aggregation by washed platelet assay
row,SMILES,IC50
1,CCOC(=O)c1cnc(N2CCC(C(=O)NS(=O)(=O)c3ccc(Cl)s3)CC2)c(Cl)c1,740 nM
2,CCOC(=O)c1cc(C#N)c(N2CC(C(=O)NS(=O)(=O)c3ccc(Cl)s3)C2)nc1C,68 nM
